Test results from patent US20230024108A1, “ADENOSINE A2A RECEPTOR ANTAGONISTS” (Teon Therapeutics, Inc., priority 2019, published 2023).

What was measured:
[1] = molecular target: T1, human A2A AdoR (Homo sapiens, UniProt P29274); assay: Adenosine receptor binding assay, A2A ([3H]-CGS-21680); conditions: membranes of HEK-293 cells expressing human A2A AdoR; read-out: hA2A IC50
T1 construct: purchased PerkinElmer RBHA2AM400UA
Outline: (§1)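 Filtration binding on membranes: A2A in HEK-293 with 6 nM [3H]-CGS-21680, Tris pH 7.4, 2 h; A2B in HEK-293 with 8 nM [3H]-DPCPX, HEPES pH 7.0, 1 h; A1 in CHO-K1 with 1 nM [3H]-DPCPX, HEPES pH 7.4, 1 h; room temperature. 8-point dilutions; IC50 converted to Ki (Cheng–Prusoff).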

[2] = tested on: phospho-CREB (pCREB); assay: Human whole blood phospho-CREB (pCREB) assay / modulation of pCREB in human immune cells; assay type: cell-based; conditions: agonist (NECA or CGS-21680)-stimulated human blood cells
Experimental: Fresh human blood samples are derived from healthy volunteers and processed in heparin tubes. 67.5 ul of whole blood is aliquoted to each well in a 96-well plate and incubated at 37° C. for 30 min. Testing compounds are diluted with DMSO to make 8-point 3-fold serial dilution and 3.5 ul (20×) is added to each well. Cells are incubated with the compounds at 37° C. for 30 min. NECA (5 uM) is then added to each well and cells are incubated for 30 min at 37° C. Following the stimulation, cells are transferred to a 96-well deep well plates and fixed with 1 ml/well of lyse/fix buffer (1×) (BD Biosciences #558049) with vigorous shake at 37° C. for 10 min. Cells are centrifuged at 600 g for 6 min and washed twice with PBS, followed by addition of 800 ul/well Perm buffer III (BD Biosciences #558050). Cells are then pelleted at 600 g for 6 min, washed with FACS buffer (PBS+0.2% BSA+1 mM EDTA) and stained for 40 min at room temperature in the dark with an antibody cocktail containing PE mouse anti-human CD3 (BD Biosciences #555333, 1 ul/well), FITC mouse anti-human CD4 (BD Biosciences #5555346, 1 ul/well), PerCP-Cy™5.5 mouse anti-human CD8 (BD Biosciences #565310, 1 ul/well) and phospho-CREB (Ser133) (87G3) Rabbit mAb (Alexa Fluor® 647 Conjugate, CST #14001, 0.5 ul/well). Cells are then washed twice with FACS buffer and acquired on a flow cytometer (Sony Cell Sorter SH800). Data were analyzed using FlowJo version 9. The level of CREB phosphorylation from unstimulated cells (Low control: LC) and NECA-stimulated cells (High control: HC) are determined as mean fluorescent intensity (MFI) in stimulated condition/mean fluorescent intensity in unstimulated condition. % Inhibition is calculated as (MFI of HC-MFI of assay well)/(MFI of HC-MFI of LC)×100%. Data are analyzed and IC50s calculated using GraphPad Prism 5 and the model “log(inhibitor) vs. response—Variable slope”.
The A2A receptor is known to mediate CREB phosphorylation.
Venous blood from healthy volunteers, all of whom signed an informed consent approved by the Ethics Committee (FOR—UIC-BV-050-01-01 ICF HBS HD Version 5.0), was obtained via ImmuneHealth (Centre Hospitalier Universitaire Tivoli, La Louviere,
15 Belgium). Peripheral blood cells were treated with A2AR agonists CGS-21680 or NECA (Sigma-Aldrich, Diegem, Belgium), and a serial dilution of compounds disclosed herein (all used stock solutions at 10 mM in DMSO). All dilutions were prepared in RPMI1640 medium (with UltraGlutamine; Lonza, Venders, Belgium), and cells were incubated with compounds in a 37° C. humidified tissue culture incubator with 5% CO2.
After stimulation, cells were fixed and permeabilized, followed by intracellular staining using mouse anti-human pCREB antibodies (Clone J151-21; BD Biosciences) at room temperature. Data were acquired using an LSRFortessa flow cytometer (BD Biosciences) and analyzed using FlowJo software (FlowJo, LLC, Ashland, Oregon).

[3] = molecular target: T2, A1AdoR (Homo sapiens, UniProt P30542); assay: Adenosine receptor binding assay, A1 ([3H]-DPCPX); conditions: ratio A1 vs A2A binding
T2 construct: purchased PerkinElmer ES-010-M400UA
T2 sequence (P30542 1-326): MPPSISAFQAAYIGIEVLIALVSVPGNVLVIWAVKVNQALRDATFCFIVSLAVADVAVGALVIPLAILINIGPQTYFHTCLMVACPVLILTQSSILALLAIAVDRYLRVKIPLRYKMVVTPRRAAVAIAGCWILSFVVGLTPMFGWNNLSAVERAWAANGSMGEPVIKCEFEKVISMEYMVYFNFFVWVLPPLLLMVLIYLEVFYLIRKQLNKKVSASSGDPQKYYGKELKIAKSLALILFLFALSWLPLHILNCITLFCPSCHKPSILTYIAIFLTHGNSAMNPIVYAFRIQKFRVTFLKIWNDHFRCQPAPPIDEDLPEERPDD
Outline: as §1

T1 sequence (P29274 whole entry): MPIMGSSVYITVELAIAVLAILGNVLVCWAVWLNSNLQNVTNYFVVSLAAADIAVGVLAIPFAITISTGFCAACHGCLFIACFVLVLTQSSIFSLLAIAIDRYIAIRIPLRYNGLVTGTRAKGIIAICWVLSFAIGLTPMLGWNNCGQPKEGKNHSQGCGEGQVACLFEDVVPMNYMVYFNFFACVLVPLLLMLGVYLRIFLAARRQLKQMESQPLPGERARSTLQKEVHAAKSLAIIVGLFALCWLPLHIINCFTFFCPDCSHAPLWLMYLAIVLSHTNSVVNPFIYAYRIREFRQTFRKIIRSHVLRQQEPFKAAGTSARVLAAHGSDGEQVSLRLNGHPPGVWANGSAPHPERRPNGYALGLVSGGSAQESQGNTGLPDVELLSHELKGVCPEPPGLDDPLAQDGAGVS

SMILES	IC50 [1] [µM]	EC50 [2] [µM]	A1/A2A Selectivity [3]
CC#Cc1nc2c3ncn(CCN4CCN(c5cc(-c6ncco6)ccc5F)CC4)c3nc(N)n2n1	≤ 0.02	0.02 to 0.1	a (greater than 1000)
Cc1c(C(N)=O)n(CCN2CCN(c3cc(-c4ncco4)ccc3F)CC2)c2nc(N)n3nc(-c4ccccn4)nc3c12	≤ 0.02	≤ 0.02	a (greater than 1000)
N#Cc1c(Cl)c2c(nc(N)n3nc(-c4ccccn4)nc23)n1CCN1CCN(c2cc(-c3ncco3)ccc2F)CC1	≤ 0.02	0.02 to 0.1	–
COC(=O)c1c(C)c2c(nc(N)n3nc(-c4ccccn4)nc23)n1CCN1CCN(c2cc(-c3ncco3)ccc2F)CC1	≤ 0.02	> 0.1	a (greater than 1000)
Cc1cn(CCN2CCN(c3cc(-c4ncco4)ccc3F)CC2)c2nc(N)n3nc(-c4ccccn4)nc3c12	≤ 0.02	0.02 to 0.1	c (greater than 0 but less than or equal to 100)
Cc1noc2cc(F)c(N3CCN(CCn4cnc5c4nc(N)n4nc(-c6ccccn6)nc54)CC3)cc12 [3-(2-(4-(6-fluoro-3-methylbenzo[d]isoxazol-5-yl)piperazin-1-yl)ethyl)-8-(pyridin-2-yl)-3H-[1,2,4]triazolo[5,1-i]purin-5-amine]	≤ 0.02	> 0.1	b (greater than 100 but less than or equal to 1000)
Nc1nc2c(ncn2CCN2CCc3ncc(-c4nccs4)cc3C2)c2nc(-c3ccccn3)nn12	≤ 0.02	–	c (greater than 0 but less than or equal to 100)
Nc1nc2c(ncn2CCN2CCN(c3cc(-c4ncco4)ccc3F)CC2)c2nc(-c3ccccn3)nn12 [3-(2-(4-(2-fluoro-5-(oxazol-2-yl)phenyl)piperazin-1-yl)ethyl)-8-(pyridin-2-yl)-3H-[1,2,4]triazolo[5,1-i]purin-5-amine]	≤ 0.02	–	b (greater than 100 but less than or equal to 1000)
Nc1nc2c(c(Cl)c(C(=O)O)n2CCN2CCN(c3ccc(F)cc3F)CC2)c2nc(-c3ccccn3)nn12 [5-amino-9-chloro-7-(2-(4-(2,4-difluorophenyl)piperazin-1-yl)ethyl)-2-(pyridin-2-yl)-7H-pyrrolo[3,2-e][1,2,4]triazolo[1,5-c]pyrimidine-8-carboxylic acid]	≤ 0.02	–	b (greater than 100 but less than or equal to 1000)

Continued, in another order:

IC50 [1] [µM]	EC50 [2] [µM]	SMILES	A1/A2A Selectivity [3]
≤ 0.02	0.02 to 0.1	Cc1c(C(=O)N2CCC2)n(CCN2CCN(c3cc(-c4ncco4)ccc3F)CC2)c2nc(N)n3nc(-c4ccccn4)nc3c12	b (greater than 100 but less than or equal to 1000)
≤ 0.02	≤ 0.02	CNC(=O)c1c(C)c2c(nc(N)n3nc(-c4ccccn4)nc23)n1CCN1CCN(c2cc(-c3ncco3)ccc2F)CC1	a (greater than 1000)
≤ 0.02	> 0.1	CS(=O)(=O)NC(=O)COc1ccc(N2CCN(CCn3c(C#N)cc4c3nc(N)n3nc(-c5ccccn5)nc43)CC2)cc1 [2-(4-(4-(2-(5-amino-8-cyano-2-(pyridin-2-yl)-7H-pyrrolo[3,2-e][1,2,4]triazolo[1,5-c]pyrimidin-7-yl)ethyl)piperazin-1-yl)phenoxy)-N-(methylsulfonyl)acetamide]	b (greater than 100 but less than or equal to 1000)
≤ 0.02	0.02 to 0.1	CS(=O)(=O)NC(=O)COc1ccc(N2CCN(CCn3c(C#N)c(Cl)c4c3nc(N)n3nc(-c5ccccn5)nc43)CC2)cc1	b (greater than 100 but less than or equal to 1000)
≤ 0.02	> 0.1	CNC(=O)c1cc2c(nc(N)n3nc(-c4ccccn4)nc23)n1CCN1CCN(c2cc(-c3ncco3)ccc2F)CC1 [5-amino-7-(2-(4-(2-fluoro-5-(oxazol-2-yl)phenyl)piperazin-1-yl)ethyl)-N-methyl-2-(pyridin-2-yl)-7H-pyrrolo[3,2-e][1,2,4]triazolo[1,5-c]pyrimidine-8-carboxamide]	c (greater than 0 but less than or equal to 100)
